± gives the standard deviation of the averaged measurements.
Legend:
Test in all cases: level (log10 ratio to DMSO vehicle control); higher = higher biomarker level / cell amount than vehicle control
Perfluoropentanoic acid = compound: O=C(O)C(F)(F)C(F)(F)C(F)(F)C(F)(F)F [Perfluoropentanoic acid]; settings: in DMSO
Description: (§1)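 BioMAP Diversity Plus panel of 12 human primary cell co-culture systems (3C, 4H, LPS, SAg, BT, BF4T, BE3C, CASM3C, HDF3CGF, KF3CT, MyoF, Mphg). Compounds were added 1 h before stimulation and left for 24 h (MyoF 48 h; BT 72 h for soluble read-outs or 6 d for IgG). Biomarkers were read by ELISA, cytotoxicity by SRB, PBMC viability and proliferation by Alamar Blue. Each well value was divided by the mean of 8 DMSO control wells on the same plate and log10 transformed; duplicate blinded samples were tested at 4 concentrations.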

[1] = compound: OCCCC(F)(F)C(F)(F)C(F)(F)C(F)(F)C(F)(F)C(F)(F)C(F)(F)F [7:3 Fluorotelomer alcohol]; settings: 6700 nM; in DMSO
Description: as §1

[2] = compound: FC(F)(F)C(F)(F)C(F)(F)C(F)(F)C(F)(F)C(F)(F)C(F)(F)C(F)(F)CCS [2-(Perfluorooctyl)ethanthiol]; settings: in DMSO
Description: as §1

Perfluorodecanoic acid = compound: O=C(O)C(F)(F)C(F)(F)C(F)(F)C(F)(F)C(F)(F)C(F)(F)C(F)(F)C(F)(F)C(F)(F)F [Perfluorodecanoic acid]; settings: in DMSO
Description: as §1

Perfluoro-1-iodohexane = compound: FC(F)(F)C(F)(F)C(F)(F)C(F)(F)C(F)(F)C(F)(F)I [Perfluoro-1-iodohexane]; settings: in DMSO
Description: as §1

[3] = compound: FC(F)(F)C(F)(F)C(F)(F)C(F)(F)C(F)(F)CCI [1-Iodo-1H,1H,2H,2H-perfluoroheptane]; settings: in DMSO
Description: as §1

[4] = compound: O=S(=O)(O)C(F)(F)C(F)(F)C(F)(F)C(F)(F)C(F)(F)C(F)(F)F [Perfluorohexanesulfonic acid]; settings: in DMSO
Description: as §1

[5] = compound: O=C(O)C(F)(F)C(F)(F)C(F)F [4H-Perfluorobutanoic acid]; settings: in DMSO
Description: as §1

Row | Test System | level (log10) (Perfluoropentanoic acid; 6700 nM) | level (log10) (Perfluoropentanoic acid; 20000 nM) | level (log10) (Perfluoropentanoic acid; 60000 nM) | level (log10) [1] | level (log10) ([2]; 6700 nM) | level (log10) ([2]; 20000 nM) | level (log10) (Perfluorodecanoic acid; 6700 nM) | level (log10) (Perfluorodecanoic acid; 20000 nM) | level (log10) (Perfluoro-1-iodohexane; 6700 nM) | level (log10) (Perfluoro-1-iodohexane; 20000 nM) | level (log10) (Perfluoro-1-iodohexane; 60000 nM) | level (log10) ([3]; 6700 nM) | level (log10) ([3]; 20000 nM) | level (log10) ([3]; 60000 nM) | level (log10) ([4]; 6700 nM) | level (log10) ([4]; 20000 nM) | level (log10) ([4]; 60000 nM) | level (log10) ([5]; 6700 nM) | level (log10) ([5]; 20000 nM) | level (log10) ([5]; 60000 nM)
1 | HDF3CGF:CCL2/MCP-1 | -0.03 ± 0.017 | -0.054 ± 0.013 | -0.022 ± 0.048 | -0.0085 ± 0.0092 | -0.0505 ± 0.03 | -0.077 ± 0.014 | -0.0595 ± 0.0078 | 0.042 ± 0.034 | -0.0125 ± 0.013 | -0.02 ± 0.0099 | -0.065 ± 0.034 | 0.0085 ± 0.0035 | 0.02 ± 0.021 | -0.013 ± 0.035 | 0.009 ± 0.0057 | 0.007 ± 0.014 | 0.021 ± 0.031 | -0.0385 ± 0.021 | -0.018 ± 0.051 | 0.049 ± 0.0071
2 | HDF3CGF:CD54/ICAM-1 | 0.039 ± 0.054 | 0.035 ± 0.033 | 0.0485 ± 0.046 | -0.024 ± 0.0085 | -0.012 ± 0.0057 | -0.0145 ± 0.021 | -0.0485 ± 0.0092 | -0.071 | -0.014 ± 0.0099 | -0.0225 ± 0.013 | -0.0255 ± 0.0078 | -0.0065 ± 0.013 | -0.0215 ± 0.00071 | -0.0195 ± 0.0064 | -0.0195 ± 0.00071 | -0.0325 ± 0.00071 | -0.0345 ± 0.0035 | 0.009 ± 0.021 | 0.013 ± 0.0099 | 0.0035 ± 0.005
3 | HDF3CGF:CD106/VCAM-1 | -0.0095 ± 0.005 | 0.0035 ± 0.036 | 0.0035 ± 0.022 | -0.0795 ± 0.005 | -0.0255 ± 0.0064 | -0.0555 ± 0.059 | -0.0085 ± 0.026 | -0.623 ± 0.057 | -0.027 ± 0.024 | -0.032 ± 0.014 | -0.405 ± 0.44 | -0.0335 ± 0.019 | -0.102 ± 0.033 | -0.429 ± 0.011 | 0.0105 ± 0.011 | 0.0165 ± 0.00071 | -0.0155 ± 0.0035 | -0.0385 ± 0.018 | -0.0525 ± 0.022 | -0.0445 ± 0.096
4 | HDF3CGF:CXCL8/IL-8 | 0.003 ± 0.0057 | -0.006 ± 0.0028 | 0.002 ± 0.023 | -0.005 ± 0.0042 | -0.004 ± 0.0099 | -0.0095 ± 0.00071 | 0.0065 ± 0.005 | 0.02 ± 0.011 | -0.0055 ± 0.0021 | -0.002 ± 0.0057 | -0.024 ± 0.037 | 0.001 ± 0.0099 | 0.011 ± 0.0028 | 0.0225 ± 0.0064 | 0.0045 ± 0.013 | 0.0035 ± 0.015 | 0.0065 ± 0.016 | 0.001 ± 0.0014 | 0.0025 ± 0.0078 | 0.0095 ± 0.023
5 | HDF3CGF:CXCL9/MIG | -0.004 ± 0.0057 | -0.004 ± 0.018 | -0.003 ± 0.02 | -0.0225 ± 0.018 | -0.0085 ± 0.0078 | -0.0125 ± 0.0092 | -0.069 ± 0.048 | -0.27 ± 0.061 | 0 ± 0.0028 | -0.021 ± 0.0057 | -0.0325 ± 0.018 | -0.0255 ± 0.044 | -0.0445 ± 0.0092 | -0.149 ± 0.11 | -0.0195 ± 0.0021 | -0.017 | 0.005 ± 0.042 | -0.0015 ± 0.033 | -0.0035 ± 0.025 | -0.0125 ± 0.028
6 | HDF3CGF:CXCL10/IP-10 | 0 ± 0.014 | -0.011 ± 0.0028 | 0.006 ± 0.0057 | -0.047 ± 0.03 | -0.027 ± 0.025 | -0.0495 ± 0.005 | -0.0745 ± 0.015 | -0.427 ± 0.019 | -0.033 ± 0.014 | -0.0435 ± 0.0035 | -0.114 ± 0.076 | -0.011 ± 0.0099 | -0.053 ± 0.0071 | -0.11 ± 0.023 | 0.0035 ± 0.0064 | 0.0015 ± 0.021 | -0.0135 ± 0.012 | -0.0145 ± 0.016 | 0.0025 ± 0.0021 | 0.0085 ± 0.012
7 | HDF3CGF:CXCL11/I-TAC | -0.0085 ± 0.012 | -0.0065 ± 0.015 | 0.005 ± 0.054 | -0.0445 ± 0.023 | -0.0135 ± 0.028 | -0.0355 ± 0.0092 | 0.046 ± 0.0014 | -0.469 ± 0.28 | -0.0215 ± 0.011 | -0.0305 ± 0.016 | -0.183 ± 0.15 | -0.0155 ± 0.00071 | -0.027 ± 0.0042 | -0.143 ± 0.042 | 0.01 | -0.004 ± 0.0099 | -0.004 ± 0.021 | -0.0155 ± 0.071 | 0.003 ± 0.0071 | 0.0125 ± 0.0035
8 | HDF3CGF:Collagen I | -0.0295 ± 0.012 | -0.01 ± 0.0014 | 0.003 ± 0.064 | -0.0325 ± 0.046 | 0.0055 ± 0.052 | 0.0125 ± 0.052 | -0.02 ± 0.025 | -0.0095 ± 0.04 | -0.0285 ± 0.026 | -0.0365 ± 0.0092 | -0.045 ± 0.0071 | 0.003 ± 0.017 | 0.0055 ± 0.005 | -0.093 ± 0.061 | 0.0085 ± 0.015 | 0.0185 ± 0.015 | 0.0555 ± 0.067 | -0.0445 ± 0.028 | -0.024 ± 0.072 | 0.0525 ± 0.029
9 | HDF3CGF:Collagen III | 0.005 ± 0.014 | 0.01 ± 0.017 | 0.033 ± 0.034 | 0.0135 ± 0.044 | 0.0005 ± 0.033 | 0.002 ± 0.035 | -0.08 ± 0.058 | -0.0755 ± 0.021 | -0.0405 ± 0.066 | -0.0755 ± 0.0021 | -0.178 ± 0.13 | 0.0695 ± 0.026 | -0.008 ± 0.12 | -0.0595 ± 0.022 | -0.0005 ± 0.022 | 0.0005 ± 0.015 | 0.0105 ± 0.043 | -0.005 ± 0.088 | 0.03 ± 0.054 | 0.072 ± 0.042
10 | HDF3CGF:EGFR | 0.008 ± 0.02 | -0.0265 ± 0.013 | -0.008 ± 0.027 | -0.005 ± 0.12 | -0.0295 ± 0.018 | -0.018 ± 0.04 | -0.075 ± 0.054 | -0.195 ± 0.026 | 0.016 ± 0.05 | 0.0115 ± 0.043 | -0.035 ± 0.14 | 0.046 ± 0.02 | 0.059 ± 0.021 | 0.038 ± 0.031 | 0.0045 ± 0.025 | -0.0125 ± 0.039 | -0.021 ± 0.04 | -0.0155 ± 0.054 | 0.0005 ± 0.019 | 0.0725 ± 0.12
11 | HDF3CGF:M-CSF | 0.0025 ± 0.019 | -0.018 ± 0.0099 | 0.004 ± 0.0028 | 0.0035 ± 0.044 | -0.0185 ± 0.013 | -0.014 ± 0.0099 | 0.023 ± 0.0057 | -0.275 ± 0.018 | 0.0155 ± 0.019 | 0.024 ± 0.0028 | -0.021 ± 0.034 | -0.0275 ± 0.053 | -0.0415 ± 0.011 | -0.198 ± 0.11 | 0.001 ± 0.0085 | -0.012 ± 0.0028 | 0.0015 ± 0.00071 | -0.0305 ± 0.035 | -0.013 ± 0.033 | -0.015 ± 0.041
12 | HDF3CGF:MMP-1 | -0.0165 ± 0.013 | -0.0215 ± 0.0021 | -0.0215 ± 0.011 | -0.034 ± 0.021 | -0.0095 ± 0.022 | -0.0235 ± 0.044 | -0.041 ± 0.0028 | -0.174 ± 0.08 | 0.0065 ± 0.0035 | -0.0075 ± 0.029 | -0.034 ± 0.017 | 0.0565 ± 0.013 | 0.078 ± 0.0085 | 0.089 ± 0.037 | 0.001 ± 0.025 | -0.0095 ± 0.03 | 0.01 ± 0.028 | 0.0005 ± 0.0021 | -0.0025 ± 0.0035 | 0.0075 ± 0.021
13 | HDF3CGF:PAI-I | -0.0055 ± 0.026 | -0.015 ± 0.013 | 0.007 ± 0.0014 | 0.0175 ± 0.029 | -0.077 ± 0.054 | -0.0885 ± 0.066 | 0.15 ± 0.051 | -0.107 ± 0.1 | 0.017 ± 0.011 | 0.005 ± 0.031 | -0.041 ± 0.014 | 0.078 ± 0.02 | 0.0135 ± 0.0078 | 0.0355 ± 0.096 | -0.0185 ± 0.019 | -0.0145 ± 0.023 | -0.004 ± 0.0057 | -0.021 ± 0.12 | 0.0115 ± 0.1 | 0.03 ± 0.069
14 | HDF3CGF:Proliferation 72hr | 0.002 ± 0.041 | 0.0505 ± 0.11 | 0.022 ± 0.03 | -0.49 ± 0.0042 | -0.003 ± 0.0071 | -0.0115 ± 0.013 | 0.115 ± 0.025 | -0.934 ± 0.037 | -0.0315 ± 0.019 | -0.028 ± 0.0014 | -0.468 ± 0.57 | -0.058 ± 0.0099 | -0.257 ± 0.04 | -0.832 ± 0.16 | 0.054 ± 0.035 | 0.072 ± 0.051 | 0.107 ± 0.024 | -0.0415 ± 0.012 | -0.03 ± 0.0042 | 0.066 ± 0.02
